Reference: ChEMBL document CHEMBL1201862, “PubChem BioAssay data set” (2004)
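In this assay, cells in 96-well plates receive the compound at five concentrations for 48 hours. Endpoints are linearly interpolated between the surrounding concentrations. GI50 = concentration required for 50% inhibition of growth.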 Activity calls are given as the source filed them. Rule as the data show it: active = GI50 up to about 1.1 µM and inactive = higher.

How the values were obtained:
Assay in all cases: NCI anticancer screen, dose series, 48 h
M14 = tested on: M14
HCC 2998 = tested on: HCC 2998
MDA-MB-231 = tested on: MDA-MB-231
CCRF-CEM = tested on: CCRF-CEM
UACC-257 = tested on: UACC-257
OVCAR-5 = tested on: OVCAR-5
MDA-MB-435 = tested on: MDA-MB-435
SF-268 = tested on: SF-268
DU-145 = tested on: DU-145
MOLT-4 = tested on: MOLT-4
SF-539 = tested on: SF-539
EKVX = tested on: EKVX
U-251 = tested on: U-251
SN12C = tested on: SN12C
MCF7 = tested on: MCF7
A498 = tested on: A498
HCT-116 = tested on: HCT-116
NCI-H522 = tested on: NCI-H522
UACC-62 = tested on: UACC-62
T47D = tested on: T47D

| SMILES | GI50 (M14) | GI50 (HCC 2998) | GI50 (MDA-MB-231) | GI50 (CCRF-CEM) | GI50 (UACC-257) | GI50 (OVCAR-5) | GI50 (MDA-MB-435) | GI50 (SF-268) | GI50 (DU-145) | GI50 (MOLT-4) | GI50 (SF-539) | GI50 (EKVX) | GI50 (U-251) | GI50 (SN12C) | GI50 (MCF7) | GI50 (A498) | GI50 (HCT-116) | GI50 (NCI-H522) | GI50 (UACC-62) | GI50 (T47D) |
| --- | --- | --- | --- | --- | --- | --- | --- | --- | --- | --- | --- | --- | --- | --- | --- | --- | --- | --- | --- | --- |
| O=[N+]([O-])c1cccc2nc3ccccc3c(NCCc3cccc[n+]3[O-])c12 | < 0.0105 µM (active) | < 0.01 µM (active) | < 0.01 µM (active) | < 0.0318 µM (active) | < 0.0231 µM (active) | < 0.0194 µM (active) | < 0.0116 µM (active) | < 0.0476 µM (active) | < 0.01 µM (active) | < 0.0144 µM (active) | 0.0407 µM (active) | < 0.0212 µM (active) | < 0.038 µM (active) | < 0.0199 µM (active) | < 0.0116 µM (active) | 0.0475 µM (active) | < 0.01 µM (active) | 0.0187 µM (active) | 0.052 µM (active) | < 0.0378 µM (active) |
| O=C1C=CC(=O)c2c1cc([N+](=O)[O-])c1ccoc21 | 6.17 µM (inactive) | 19.5 µM (inactive) | 21.3 µM (inactive) | 2.1 µM (inactive) | 10.7 µM (inactive) | 18.5 µM (inactive) | 11.7 µM (inactive) | 26.2 µM (inactive) | 9.06 µM (inactive) | 0.942 µM (active) | 27.2 µM (inactive) | 17.8 µM (inactive) | 18.5 µM (inactive) | 15.2 µM (inactive) | 14.3 µM (inactive) | 15.5 µM (inactive) | 6.03 µM (inactive) | 2.07 µM (inactive) | 15.8 µM (inactive) | 2.8 µM (inactive) |
| Clc1ccc(Nc2nn3c(CCCCCCCCc4nnc5sc(Nc6ccc(Cl)cc6)nn45)nnc3s2)cc1 | > 100 µM (inactive) | > 100 µM (inactive) | 29.4 µM (inactive) | 17.6 µM (inactive) | > 100 µM (inactive) | > 100 µM (inactive) | > 100 µM (inactive) | > 100 µM (inactive) | > 100 µM (inactive) | 90.6 µM (inactive) | > 100 µM (inactive) | > 100 µM (inactive) | 37 µM (inactive) | > 100 µM (inactive) | > 100 µM (inactive) | > 100 µM (inactive) | > 100 µM (inactive) | > 100 µM (inactive) | > 100 µM (inactive) | > 100 µM (inactive) |
| O=C(SC1=NCCN1)c1cccc2ccccc12 | 67.6 µM (inactive) | > 100 µM (inactive) | > 100 µM (inactive) | 21.8 µM (inactive) | 28.9 µM (inactive) | > 100 µM (inactive) | 53.5 µM (inactive) | > 100 µM (inactive) | 67.5 µM (inactive) | 16.9 µM (inactive) | > 100 µM (inactive) | 28.3 µM (inactive) | 45.5 µM (inactive) | 64.6 µM (inactive) | 50.9 µM (inactive) | > 100 µM (inactive) | 41 µM (inactive) | 19.5 µM (inactive) | > 100 µM (inactive) | 44.9 µM (inactive) |
| CCOC(=O)N1CCN(c2ccc3c(C)cc(C)nc3n2)CC1 | > 100 µM (inactive) | > 100 µM (inactive) | > 100 µM (inactive) | > 100 µM (inactive) | > 100 µM (inactive) | > 100 µM (inactive) | > 100 µM (inactive) | > 100 µM (inactive) | > 100 µM (inactive) | > 100 µM (inactive) | > 100 µM (inactive) | > 100 µM (inactive) | > 100 µM (inactive) | > 100 µM (inactive) | > 100 µM (inactive) | > 100 µM (inactive) | > 100 µM (inactive) | > 100 µM (inactive) | > 100 µM (inactive) | > 100 µM (inactive) |
| O=C(O)COc1cc(-c2ccccc2)nc2ccc(F)cc12 | > 100 µM (inactive) | 98.6 µM (inactive) | > 100 µM (inactive) | > 100 µM (inactive) | > 100 µM (inactive) | > 100 µM (inactive) | > 100 µM (inactive) | > 100 µM (inactive) | > 100 µM (inactive) | > 100 µM (inactive) | > 100 µM (inactive) | > 100 µM (inactive) | > 100 µM (inactive) | > 100 µM (inactive) | > 100 µM (inactive) | > 100 µM (inactive) | > 100 µM (inactive) | 58.1 µM (inactive) | > 100 µM (inactive) | > 100 µM (inactive) |
| N#Cc1c(C#N)c(-c2cccc([N+](=O)[O-])c2)n(-c2ccccc2)c1N | > 100 µM (inactive) | > 100 µM (inactive) | 38.7 µM (inactive) | > 100 µM (inactive) | > 100 µM (inactive) | > 100 µM (inactive) | > 100 µM (inactive) | 88.7 µM (inactive) | > 100 µM (inactive) | > 100 µM (inactive) | 21.1 µM (inactive) | > 100 µM (inactive) | 44.8 µM (inactive) | > 100 µM (inactive) | > 100 µM (inactive) | 17.8 µM (inactive) | > 100 µM (inactive) | > 100 µM (inactive) | 66.1 µM (inactive) | > 100 µM (inactive) |
| CCN1CCN(c2nc3ccc([N+](=O)[O-])cc3nc2C(=O)c2ccccc2)CC1 | 12.4 µM (inactive) | 15.3 µM (inactive) | 14.6 µM (inactive) | 2.12 µM (inactive) | 20.1 µM (inactive) | 20.1 µM (inactive) | 16.3 µM (inactive) | 19.1 µM (inactive) | 18.8 µM (inactive) | 3.23 µM (inactive) | 16.1 µM (inactive) | 16.1 µM (inactive) | 17.3 µM (inactive) | 16.3 µM (inactive) | 18.3 µM (inactive) | 30.4 µM (inactive) | 17.1 µM (inactive) | 2.67 µM (inactive) | 16.9 µM (inactive) | 26.7 µM (inactive) |
| CC(=O)NNc1nc(C)c(C(/C=C/c2cccc([N+](=O)[O-])c2)=N/NC(=S)NN)s1 | > 100 µM (inactive) | > 100 µM (inactive) | > 100 µM (inactive) | > 100 µM (inactive) | > 100 µM (inactive) | > 100 µM (inactive) | > 100 µM (inactive) | > 100 µM (inactive) | > 100 µM (inactive) | > 100 µM (inactive) | > 100 µM (inactive) | 52.1 µM (inactive) | > 100 µM (inactive) | > 100 µM (inactive) | > 100 µM (inactive) | > 100 µM (inactive) | > 100 µM (inactive) | > 100 µM (inactive) | > 100 µM (inactive) | > 100 µM (inactive) |
| O=C1/C(=C/c2ccc3c(c2)OCO3)CCC1CN1CCOCC1 (stereo not given) | 4.22 µM (inactive) | 8.75 µM (inactive) | 3.36 µM (inactive) | 1.54 µM (inactive) | 9.68 µM (inactive) | 14 µM (inactive) | 14.3 µM (inactive) | 10.5 µM (inactive) | 16 µM (inactive) | 1.95 µM (inactive) | 13 µM (inactive) | 16.6 µM (inactive) | 7.05 µM (inactive) | 4.06 µM (inactive) | 2.1 µM (inactive) | 14.8 µM (inactive) | 3.25 µM (inactive) | 1.04 µM (active) | 9.16 µM (inactive) | 3.98 µM (inactive) |
| O=C(O)CP(=O)(O)O | > 100 µM (inactive) | > 100 µM (inactive) | > 100 µM (inactive) | > 100 µM (inactive) | > 100 µM (inactive) | > 100 µM (inactive) | > 100 µM (inactive) | > 100 µM (inactive) | > 100 µM (inactive) | > 100 µM (inactive) | > 100 µM (inactive) | > 100 µM (inactive) | > 100 µM (inactive) | > 100 µM (inactive) | > 100 µM (inactive) | > 100 µM (inactive) | > 100 µM (inactive) | > 100 µM (inactive) | > 100 µM (inactive) | > 100 µM (inactive) |
| CC(C)C(C/C=C1/CC(CO)(COC(=O)C2CCCCC2)OC1=O)C(C)C (stereo not given) | 17.3 µM (inactive) | 26.1 µM (inactive) | 17 µM (inactive) | 17.2 µM (inactive) | 26.9 µM (inactive) | 18.7 µM (inactive) | 34.7 µM (inactive) | 17.6 µM (inactive) | 13.2 µM (inactive) | 17.8 µM (inactive) | 14.2 µM (inactive) | 20 µM (inactive) | 18.3 µM (inactive) | 16.8 µM (inactive) | 18.7 µM (inactive) | 20.4 µM (inactive) | 17.5 µM (inactive) | 17.3 µM (inactive) | 89.9 µM (inactive) | 21.3 µM (inactive) |
| CC(C)=CCC[C@](C)(O[C@@H]1O[C@H](CO)[C@@H](O)[C@H](O)[C@H]1O)[C@H]1CC[C@]2(C)[C@@H]1[C@H](O)C[C@@H]1[C@@]3(C)CC[C@@H](O)C(C)(C)[C@@H]3[C@@H](O[C@@H]3O[C@H](CO)[C@@H](O)[C@H](O)[C@H]3O)C[C@]12C.C[C@@H]1O[C@@H](O[C@H]2[C@H](O[C@H]3C[C@]4(C)[C@H](C[C@H](O)[C@@H]5[C@@H]([C@@]6(C)CC[C@H](C(C)(C)O)O6)CC[C@]54C)[C@@]4(C)CC[C@H](O)C(C)(C)[C@H]34)O[C@H](CO)[C@@H](O)[C@@H]2O)[C@H](O)[C@H](O)[C@H]1O | > 100 µM (inactive) | > 100 µM (inactive) | > 100 µM (inactive) | > 100 µM (inactive) | > 100 µM (inactive) | > 100 µM (inactive) | > 100 µM (inactive) | > 100 µM (inactive) | > 100 µM (inactive) | 84.9 µM (inactive) | > 100 µM (inactive) | > 100 µM (inactive) | > 100 µM (inactive) | > 100 µM (inactive) | > 100 µM (inactive) | > 100 µM (inactive) | > 100 µM (inactive) | > 100 µM (inactive) | > 100 µM (inactive) | > 100 µM (inactive) |
